Test results: patent publication US11891365B2, “3-alkyl-4-amido-bicyclic [4,5,0] hydroxamic acids as HDAC inhibitors” (Valo Health, Inc., priority 2015, dated 2024)

Each compound was assayed against T1, Full length human recombinant HDAC6 protein (Homo sapiens, UniProt Q9UBN7) (assay: In vitro histone deacetylase assay: enzymatic HDAC6 electrophoretic mobility shift assay). Settings: 1 nM enzyme, 2 μM peptide substrate RHKK(Ac)-NH2, 25° C., 12 concentrations; read-out: Inhibitory Concentration (IC50) Values against HDAC6, Activity Range.
T1 sequence (Q9UBN7 1-1215): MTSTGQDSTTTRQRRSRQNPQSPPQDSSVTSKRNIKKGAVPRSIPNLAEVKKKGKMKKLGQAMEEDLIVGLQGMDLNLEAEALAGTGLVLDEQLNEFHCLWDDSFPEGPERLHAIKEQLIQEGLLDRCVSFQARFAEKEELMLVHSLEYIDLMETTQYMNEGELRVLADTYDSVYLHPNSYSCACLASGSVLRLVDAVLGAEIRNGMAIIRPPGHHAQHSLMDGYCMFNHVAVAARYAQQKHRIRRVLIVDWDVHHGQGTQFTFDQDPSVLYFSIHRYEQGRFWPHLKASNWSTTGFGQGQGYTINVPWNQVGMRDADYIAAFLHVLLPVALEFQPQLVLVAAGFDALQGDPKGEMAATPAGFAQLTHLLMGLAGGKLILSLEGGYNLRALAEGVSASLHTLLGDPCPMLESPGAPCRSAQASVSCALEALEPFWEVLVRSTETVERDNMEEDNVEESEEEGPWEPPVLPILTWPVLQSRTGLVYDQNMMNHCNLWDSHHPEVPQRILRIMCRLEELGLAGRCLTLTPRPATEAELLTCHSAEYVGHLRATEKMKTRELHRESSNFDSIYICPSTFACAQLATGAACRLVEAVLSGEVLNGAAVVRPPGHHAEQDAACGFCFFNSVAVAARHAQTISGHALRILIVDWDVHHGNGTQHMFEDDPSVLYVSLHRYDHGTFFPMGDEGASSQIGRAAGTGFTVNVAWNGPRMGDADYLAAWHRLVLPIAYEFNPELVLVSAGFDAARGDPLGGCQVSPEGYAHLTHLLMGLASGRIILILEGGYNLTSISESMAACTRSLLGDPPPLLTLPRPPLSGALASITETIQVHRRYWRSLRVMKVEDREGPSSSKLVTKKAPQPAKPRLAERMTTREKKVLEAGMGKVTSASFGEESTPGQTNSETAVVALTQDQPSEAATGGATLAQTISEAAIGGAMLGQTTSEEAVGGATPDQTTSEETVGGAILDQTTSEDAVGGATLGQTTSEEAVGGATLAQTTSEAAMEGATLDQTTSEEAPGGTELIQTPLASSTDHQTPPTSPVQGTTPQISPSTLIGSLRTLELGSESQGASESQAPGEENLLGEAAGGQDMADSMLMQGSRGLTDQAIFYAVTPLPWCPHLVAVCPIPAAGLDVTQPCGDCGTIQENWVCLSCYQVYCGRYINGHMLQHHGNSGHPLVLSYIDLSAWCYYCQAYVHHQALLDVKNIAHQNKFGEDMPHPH
Format: biochemical
Method: The enzymatic HDAC6 assay was performed using electrophoretic mobility shift assay. […] The enzymatic reactions were assembled in 384 well plates in a total volume of 25 μL in a reaction buffer composing: 100 mM HEPES, pH7.5, 25 mM KCl, 0.1% bovine serum albumin, 0.01% Triton X-100, 1% DMSO (from compounds) 2 μM of the fluorescently labeled peptide substrate and enzyme. The enzyme was added at a final concentration of 1 nM. The peptide substrate RHKK(Ac)—NH2 was used. The compounds were tested at 12 concentrations spaced by 3× dilution intervals. Negative control samples ([…] in the absence of inhibitor) and positive control samples (100%-inhibition) were assembled in replicates of four in each assay plate. The reactions were incubated at 25° C. and quenched by the addition of 45 μL of termination buffer (100 mM HEPES, pH 7.5, 0.01% Triton X-100, 0.05% SDS).
The terminated assay plates were analyzed on LabChip® 3000 microfluidic electrophoresis instrument (Perkin Elmer/Caliper Life Sciences). The fluorescence intensity of the electrophoretically separated de-acetylated product and substrate peptide was measured. Activity in each sample was determined as the product to sum ratio (PSR): P/(S+P), where P is the peak height of the product peptide and S is the peak height of the substrate peptide. Percent inhibition (Pinh) is determined using the following equation:
Pinh=(PSR0%−PSRinh)/(PSR0%−PSR100%)*100, where PSRinh is the product sum ratio in the presence of inhibitor, PSR0% is the average product sum ration in the absence of inhibitor and PSR100% is the average product sum ratio in 100%-inhibition control samples. The IC50 values of inhibitors were determined by fitting the %-inhibition curves with 4 parameter dose-response model using XLfit 4 software.

`CC(C)(C(=O)N1CCOc2cc(C(=O)NO)ccc2C1)n1cc(Cl)cn1` [4-(2-(4-chloro-1H-pyrazol-1-yl)-2-methylpropanoyl)-N-hydroxy-2,3,4,5-tetrahydrobenzo[f][1,4]oxazepine-8-carboxamide] and `CC(C)(C(=O)N1CCOc2cc(C(=O)NO)ccc2C1)c1ccc(F)cc1` [4-(2-(4-fluorophenyl)-2-methylpropanoyl)-N-hydroxy-2,3,4,5-tetrahydrobenzo[f][1,4]oxazepine-8-carboxamide] cannot be ordered by IC50: no more than 100 nM for the first, 100 to 500 nM for the second.

`CC(C(=O)N1CCOc2cc(C(=O)NO)ccc2C1)c1ccc(F)cc1` (centres unmarked) [4-(2-(4-fluorophenyl)propanoyl)-N-hydroxy-2,3,4,5-tetrahydrobenzo[f][1,4]oxazepine-8-carboxamide] and `O=C(NO)c1ccc2c(c1)OCCN(C(=O)c1ccc(OC(F)F)cc1)C2` [4-(4-(difluoromethoxy)benzoyl)-N-hydroxy-2,3,4,5-tetrahydrobenzo[f][1,4]oxazepine-8-carboxamide] fall in the same range of IC50: 100 to 500 nM for the first, 100 to 500 nM for the second.

`CC(C)(C(=O)N1CCOc2cc(C(=O)NO)ccc2C1)c1ccc(-c2ccccc2)cc1` [4-(2-([1,1′-biphenyl]-4-yl)-2-methylpropanoyl)-N-hydroxy-2,3,4,5-tetrahydrobenzo[f][1,4]oxazepine-8-carboxamide] and `CC(C)(C)OC(C(=O)N1CCOc2cc(C(=O)NO)ccc2C1)c1ccccc1` (centres unmarked) [4-(2-(tert-butoxy)-2-phenylacetyl)-N-hydroxy-2,3,4,5-tetrahydrobenzo[f][1,4]oxazepine-8-carboxamide] fall in the same range of IC50: 100 to 500 nM for the first, 100 to 500 nM for the second.

`CC(C)(C(=O)N1CCOc2cc(C(=O)NO)ccc2C1)C1CCCCC1` [4-(2-cyclohexyl-2-methylpropanoyl)-N-hydroxy-2,3,4,5-tetrahydrobenzo[f][1,4]oxazepine-8-carboxamide] and `O=C(NO)c1ccc2c(c1)OCCN(C(=O)C1CCCCC1)C2` [4-(cyclohexanecarbonyl)-N-hydroxy-2,3,4,5-tetrahydrobenzo[f][1,4]oxazepine-8-carboxamide] cannot be ordered by IC50: 100 to 500 nM for the first, no more than 100 nM for the second.

`O=C(NO)c1ccc2c(c1)OCCN(C(=O)C(c1ccccc1)C1CCCCC1)C2` (centres unmarked) [4-(2-cyclohexyl-2-phenylacetyl)-N-hydroxy-2,3,4,5-tetrahydrobenzo[f][1,4]oxazepine-8-carboxamide] and `O=C(NO)c1ccc2c(c1)OCCN(C(=O)C(O)(c1ccccc1)C1CCCC1)C2` (centres unmarked) [4-(2-cyclopentyl-2-hydroxy-2-phenylacetyl)-N-hydroxy-2,3,4,5-tetrahydrobenzo[f][1,4]oxazepine-8-carboxamide] cannot be ordered by IC50: greater than 500 nM for the first, greater than 500 nM for the second.

`O=C(NO)c1ccc2c(c1)OCCN(C(=O)CC1CC1)C2` [4-(2-cyclopropylacetyl)-N-hydroxy-2,3,4,5-tetrahydrobenzo[f][1,4]oxazepine-8-carboxamide] and `O=C(NO)c1ccc2c(c1)OCCN(C(=O)C1CC1)C2` [4-(cyclopropanecarbonyl)-N-hydroxy-2,3,4,5-tetrahydrobenzo[f][1,4]oxazepine-8-carboxamide] cannot be ordered by IC50: no more than 100 nM for the first, 100 to 500 nM for the second.

`O=C(NO)c1ccc2c(c1)OCCN(C(=O)C1CC(F)(F)C1)C2` [4-(3,3-difluorocyclobutane-1-carbonyl)-N-hydroxy-2,3,4,5-tetrahydrobenzo[f][1,4]oxazepine-8-carboxamide] and `O=C(NO)c1ccc2c(c1)OCCN(C(=O)C1CCC(F)(F)C1)C2` (centres unmarked) [4-(3,3-difluorocyclopentane-1-carbonyl)-N-hydroxy-2,3,4,5-tetrahydrobenzo[f][1,4]oxazepine-8-carboxamide] cannot be ordered by IC50: 100 to 500 nM for the first, no more than 100 nM for the second.

`O=C(NO)c1ccc2c(c1)OCCN(C(=O)c1cc(C(F)(F)F)cc(C(F)(F)F)c1)C2` [4-(3,5-bis(trifluoromethyl)benzoyl)-N-hydroxy-2,3,4,5-tetrahydrobenzo[f][1,4]oxazepine-8-carboxamide] and `O=C(NO)c1ccc2c(c1)OCCN(C(=O)c1ccc3c(c1)OCO3)C2` [4-(benzo[d][1,3]dioxole-5-carbonyl)-N-hydroxy-2,3,4,5-tetrahydrobenzo[f][1,4]oxazepine-8-carboxamide] cannot be ordered by IC50: 100 to 500 nM for the first, no more than 100 nM for the second.

`CN(C)c1c(C(=O)N2CCOc3cc(C(=O)NO)ccc3C2)sc2ccccc12` [4-(3-(dimethylamino)benzo[b]thiophene-2-carbonyl)-N-hydroxy-2,3,4,5-tetrahydrobenzo[f][1,4]oxazepine-8-carboxamide] and `O=C(NO)c1ccc2c(c1)OCCN(C(=O)C1Cc3ccccc31)C2` (centres unmarked) [4-(bicyclo[4.2.0]octa-1(6),2,4-triene-7-carbonyl)-N-hydroxy-2,3,4,5-tetrahydrobenzo[f][1,4]oxazepine-8-carboxamide] cannot be ordered by IC50: no more than 100 nM for the first, no more than 100 nM for the second.

`CCC1(C(=O)N2CCOc3cc(C(=O)NO)ccc3C2)COC1` [4-(3-ethyloxetane-3-carbonyl)-N-hydroxy-2,3,4,5-tetrahydrobenzo[f][1,4]oxazepine-8-carboxamide] and `CC(=O)N1CCOc2cc(C(=O)NO)ccc2C1` [4-acetyl-N-hydroxy-2,3,4,5-tetrahydrobenzo[f][1,4]oxazepine-8-carboxamide] cannot be ordered by IC50: no more than 100 nM for the first, no more than 100 nM for the second.

`O=C(NO)c1ccc2c(c1)OCCN(C(=O)C1CCC(F)(F)CC1)C2` [4-(4,4-difluorocyclohexane-1-carbonyl)-N-hydroxy-2,3,4,5-tetrahydrobenzo[f][1,4]oxazepine-8-carboxamide] and `O=C(NO)c1ccc2c(c1)OCCN(C(=O)C1CCC1)C2` [4-(cyclobutanecarbonyl)-N-hydroxy-2,3,4,5-tetrahydrobenzo[f][1,4]oxazepine-8-carboxamide] cannot be ordered by IC50: 100 to 500 nM for the first, no more than 100 nM for the second.

`O=C(NO)c1ccc2c(c1)OCCN(C(=O)C1CC3CCC(C1)O3)C2` (centres unmarked) [4-(8-oxabicyclo[3.2.1]octane-3-carbonyl)-N-hydroxy-2,3,4,5-tetrahydrobenzo[f][1,4]oxazepine-8-carboxamide] and `O=C(NO)c1ccc2c(c1)OCCN(C(=O)C1CCCC1)C2` [4-(cyclopentanecarbonyl)-N-hydroxy-2,3,4,5-tetrahydrobenzo[f][1,4]oxazepine-8-carboxamide] cannot be ordered by IC50: no more than 100 nM for the first, no more than 100 nM for the second.

`O=C(NO)c1ccc2c(c1)OCCN(C(=O)c1ccc3occc3c1)C2` [4-(benzofuran-5-carbonyl)-N-hydroxy-2,3,4,5-tetrahydrobenzo[f][1,4]oxazepine-8-carboxamide] and `CC(=O)N1Cc2ccc(C(=O)NO)cc2OCC1(C)C` [4-acetyl-N-hydroxy-3,3-dimethyl-2,3,4,5-tetrahydrobenzo[f][1,4]oxazepine-8-carboxamide] fall in the same range of IC50: 100 to 500 nM for the first, 100 to 500 nM for the second.

`O=C(NO)c1cnc2c(c1)OCCN(C(=O)C1CCCCC1)C2` [4-(cyclohexanecarbonyl)-N-hydroxy-2,3,4,5-tetrahydropyrido[2,3-f][1,4]oxazepine-8-carboxamide] and `O=C(NO)c1ccc2c(n1)OCCN(C(=O)C1CCCCC1)C2` [4-(cyclohexanecarbonyl)-N-hydroxy-2,3,4,5-tetrahydropyrido[3,2-f][1,4]oxazepine-8-carboxamide] fall in the same range of IC50: 100 to 500 nM for the first, 100 to 500 nM for the second.

Work on `O=C1CN(C(=O)C2CCCCC2)Cc2cc(C(=O)NO)ccc2N1` [4-(cyclohexanecarbonyl)-N-hydroxy-2-oxo-2,3,4,5-tetrahydro-1H-benzo[e][1,4]diazepine-7-carboxamide] yielded an IC50 greater than 500 nM.
